Test: Heptane/acetonitrile partition (Kpartition) and extraction factor after hydroformylation
Assay type: physicochemical
Conditions: for Kpartition = amount of product in the heptane phase/amount of product in the acetonitrile phase: Examples 4, 6, 8, Ligand B reaction solution in heptane (2 milliliters) extracted with acetonitrile (2 milliliters), gas chromatography; for Kpartition = amount of material in the heptane phase/amount of material in the acetonitrile phase: room temperature; for extraction factor = Kpartition rhodium/Kpartition product: heptane/acetonitrile
Protocol: To the vessel was then added an equal volume of acetonitrile. The mixture was vigorously shaken for several minutes then allowed to settle and phase separate. The layers were then analyzed for rhodium content and hydroformylation product. The partition coefficient of the catalyst and the product, as defined bay Kpartition=amount of material in the heptane phase/amount of material in the acetonitrile phase, was then determined for each component.
A portion of the reaction solution (2 milliliters) was extracted with acetonitrile (2 milliliters). The phases were separated and the content of ethyl 11-formylundecanoate product was determined in both phases by gas chromatography.
A portion of the reaction solution (2 milliliters) was extracted with acetonitrile (2 milliliters). The phases were separated, and the content of methyl 11-formylundecanoate product in each phase was determined by gas chromatography.
A portion of the reaction solution (2 milliliters) was extracted with acetonitrile (2 milliliters). The phases were separated and the content of butyl 11-formylundecanoate product was determined in both phases by gas chromatography.
A portion of the reaction solution (5 mL) was diluted with heptane (10 mL), shaken at room temperature under nitrogen with acetonitrle (13 mL) and allowed to settle. Two phases with approximately equal volumes were analyzed for rhodium and the hydroformylation product. The partition coefficient of the catalyst and the product defined as Kpartition=amount of material in the heptane phase/amount of material in the acetonitrile phase was determined for each component.

CCCCOC(=O)CCCCCCCCCCC=O [butyl 11-formylundecanoate]
Kpartition = amount of product in the heptane phase/amount of product in the acetonitrile phase: 0.56

CCOC(=O)CCCCCCCCCCC=O [ethyl 11-formylundecanoate]
Kpartition = amount of product in the heptane phase/amount of product in the acetonitrile phase: 0.25

COC(=O)CCCCCCCCCCC=O [methyl 11-formylundecanoate]
Kpartition = amount of product in the heptane phase/amount of product in the acetonitrile phase: 0.19

rhodium
Kpartition = amount of material in the heptane phase/amount of material in the acetonitrile phase (Example 2, Example 1 reaction solution (Ligand A, ethyl 10-undecenoate), equal volume acetonitrile): 170 | extraction factor = Kpartition rhodium/Kpartition product (Example 2): 680 | Kpartition = amount of material in the heptane phase/amount of material in the acetonitrile phase (Example 9, Ligand A, methyl 10-undecenoate, 5 mL reaction solution diluted with heptane (10 mL), acetonitrile (13 mL)): 166 | extraction factor = Kpartition rhodium/Kpartition product (Example 9): 976
